For twelve compounds, IC50 results are on record in patent publication US10781201B2, “Benzimidazole derivative having JNK inhibitory activity and use thereof” (INDUSTRY-UNIVERSITY COOPERATION FOUNDATION HANYANG …, priority 2017, dated 2020).

The test addresses human JNK3 enzyme (Homo sapiens, UniProt P53779). Put plainly: Measurement of JNK3 enzymatic activity (33P-ATP filter-binding method). The test is classed as biochemical. Particulars: ATP 10 μM, ATF2 3 μM. On the procedure: First, a substrate was added to a prepared base reaction buffer solution (20 mM Hepes (pH 7.5), 10 mM MgCl2, 1 mM EGTA, 0.02% Brij35, 0.02 mg/ml BSA, 0.1 mM Na3VO4, 2 mM DTT, 1% DMSO), a human JNK3 enzyme was added into the prepared substrate solution, and the resulting solution was mixed. ATP (10 μM) and ATF2 (3 μM) were used as substrates, and among them, ATP was used as a common substrate. Next, the compound according to the present invention dissolved in 100% DMSO was added to an enzyme reaction solution, and incubated at room temperature for 20 minutes. Subsequently, ^33P-ATP was added to the mixed reaction solution to initiate the reaction, followed by incubation at room temperature for 2 hours, and enzymatic activity was detected by a filter-binding method. Specifically, 25 al per resulting solution was slowly spotted on P81 paper and placed in a scintillation vial, and then the paper was washed four times with 0.75% phosphoric acid for 10 minutes each and washed once with acetone for 5 minutes. 5 ml of a scintillation cocktail was added to the scintillation vial and signals were read using a scintillation counter.

human JNK3 enzyme, sequence (P53779 whole entry): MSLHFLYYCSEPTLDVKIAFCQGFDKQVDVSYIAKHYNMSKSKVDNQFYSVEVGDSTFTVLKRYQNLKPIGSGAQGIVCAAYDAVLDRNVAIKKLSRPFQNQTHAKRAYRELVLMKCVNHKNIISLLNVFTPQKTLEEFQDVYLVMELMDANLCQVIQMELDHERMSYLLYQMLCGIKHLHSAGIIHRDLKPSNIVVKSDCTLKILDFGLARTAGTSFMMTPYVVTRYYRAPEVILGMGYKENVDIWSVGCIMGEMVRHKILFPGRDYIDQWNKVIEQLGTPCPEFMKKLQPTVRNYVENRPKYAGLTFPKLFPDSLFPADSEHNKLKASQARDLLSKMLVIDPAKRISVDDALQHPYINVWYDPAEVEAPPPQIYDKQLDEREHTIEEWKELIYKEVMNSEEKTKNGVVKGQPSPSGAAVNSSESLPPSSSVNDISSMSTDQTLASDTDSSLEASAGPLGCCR

The IC50 is the concentration that gives 50% inhibition. In the case of `Oc1ccc2c(c1)nc(-c1ccc3ccccc3c1)n2-c1ccnc(NC2CCCCC2)n1` [Compound 10a, 1-(2-(cyclohexylamino)pyrimidin-4-yl)-2-(naphthalene-2-yl)-1H-benzo[d]imidazole-5-ol], under “Table 1”, the IC50 was > 0.1 µM. For the compound `O=C(C1CC1)N1CCC[C@H](Nc2nccc(-n3c(-c4ccc5c(c4)OCO5)nc4cc(O)ccc43)n2)C1` [Compound 13g, (S)-(3-(4-(2-(benzo[d][1,3]dioxole-5-yl)-5-hydroxy-1H-benz[d]imidazole-1-yl)pyrimidin-2-ylamino)piperidine-1-yl)(cyclopropyl)methanone], the IC50 (Table 1) is 0.03 to 0.1 µM. In turn, `Oc1ccc2nc(-c3ccc4occc4c3)n(-c3ccnc(NC4CCOCC4)n3)c2c1` [Compound 22d, 2-(benzofuran-5-yl)-1-(2-((tetrahydro-2H-pyran-4-yl)amino)pyrimidin-4-yl)-1H-benzo[d]imidazole-6-ol] gave a 50% inhibitory concentration (IC50) (Table 2) of 0.03 to 0.1 µM. With `O=C(C1CC1)N1CCC[C@H](Nc2nccc(-n3c(-c4ccc(Cl)c(Cl)c4)nc4ccc(O)cc43)n2)C1` [Compound 26e, (S)-cyclopropyl(3-((4-(2-(3,4-dichlorophenyl)-6-hydroxy-1H-benzo[d]imidazole-1-yl)pyrimidin-2-yl)amino)piperidine-1-yl)methanone], the concentration for half-maximal inhibition (IC50) (Table 2) was < 0.03 µM. In the case of `O=C(C1CC1)N1CCC[C@@H](Nc2nccc(-n3c(-c4ccc(F)c(C(F)(F)F)c4)nc4cc(O)c(O)cc43)n2)C1` [Compound 35c, (R)-cyclopropyl(3-(4-(2-(4-fluoro-3-(trifluoromethyl)phenyl)-5,6-dihydroxy-1H-benzo[d]imidazole-1-yl)pyrimidin-2-ylamino)piperidine-1-yl)methanone], the concentration for half-maximal inhibition (IC50) (Table 3) was < 0.03 µM. As for `O=C(C1CC1)N1CCC[C@H](Nc2nccc(-n3c(-c4ccc(F)c(C(F)(F)F)c4)nc4ccc(O)cc43)n2)C1` [Compound 26f, (S)-cyclopropyl(3-((4-(2-(4-fluoro-3-(trifluoromethyl)phenyl)-6-hydroxy-1H-benzo[d]imidazole-1-yl)pyrimidin-2-yl)amino)piperidine-1-yl)methanone], under “Table 2”, the 50% inhibitory concentration (IC50) lay within 0.03 to 0.1 µM.

Consider `Oc1ccc2c(c1)nc(-c1ccc(Cl)c(Cl)c1)n2-c1ccnc(NC2CCOCC2)n1` [Compound 9e], for which, where the note is “Table 1”, the 50% inhibitory concentration (IC50) lay within 0.03 to 0.1 µM. Consider `O=C(C1CC1)N1CCC[C@H](Nc2nccc(-n3c(-c4ccc5c(c4)OCCO5)nc4cc(O)ccc43)n2)C1` [Compound 13c, (S)-cyclopropyl(3-((4-(2-(2,3-dihydrobenzo[b][1,4]dioxin-6-yl)-5-hydroxy-1H-benzo[d]imidazole-1-yl)pyrimidin-2-yl)amino)piperidine-1-yl)methanone], for which the half-inhibitory concentration (IC50) (Table 1) was in the range of 0.03 to 0.1 µM. Consider `Oc1ccc2nc(-c3ccc4c(c3)OCCO4)n(-c3ccnc(NC4CCOCC4)n3)c2c1` [Compound 22c, 2-(2,3-dihydrobenzo[b][1,4]dioxin-6-yl)-1-(2-((tetrahydro-2H-pyran-4-yl)amino)pyrimidin-4-yl)-1H-benzo[d]imidazole-6-ol], for which, for the setting “Table 2”, the 50% inhibitory concentration (IC50) fell in the range of 0.03 to 0.1 µM. With `Oc1ccc2nc(-c3ccc4ccccc4c3)n(-c3ccnc(NC4CCOCC4)n3)c2c1` [Compound 22a, 2-(naphthalene-2-yl)-1-(2-((tetrahydro-2H-pyran-4-yl)amino)pyrimidin-4-yl)-1H-benzo[d]imidazole-6-ol], the IC50 (Table 2) is 0.03 to 0.1 µM. For `O=C(C1CC1)N1CCC[C@@H](Nc2nccc(-n3c(-c4ccc(Cl)c(Cl)c4)nc4cc(O)c(O)cc43)n2)C1` [Compound 35b, (R)-cyclopropyl(3-(4-(2-(3,4-dichlorophenyl)-5,6-dihydroxy-1H-benzo[d]imidazole-1-yl)pyrimidin-2-ylamino)piperidine-1-yl)methanone], under “Table 3”, the half-maximal inhibitory concentration (IC50) is < 0.03 µM. Compound `Oc1ccc2nc(-c3ccc(Cl)c(Cl)c3)n(-c3ccnc(NC4CCCCC4)n3)c2c1` [Compound 23e, 1-(2-(cyclohexylamino)pyrimidin-4-yl)-2-(3,4-dichlorophenyl)-1H-benzo[d]imidazole-6-ol] came in with an IC50 (Table 2) of 0.03 to 0.1 µM.
